Publication PMC5347425, “Small Molecule-Induced Domain Swapping as a Mechanism for Controlling Protein Function and Assembly” (Scientific Reports, 2017)

Biological target: T1, ribose binding protein (RBP) (Caldanaerobacter subterraneus, UniProt Q8RD41)
T1 construct: gene RbsB; RF125: RBP with human FKBP12 (V24A and C22A) inserted at position 125, without the NFM and CFM mutations
Experiment: isothermal titration calorimetry

T1 sequence (Q8RD41 24-313): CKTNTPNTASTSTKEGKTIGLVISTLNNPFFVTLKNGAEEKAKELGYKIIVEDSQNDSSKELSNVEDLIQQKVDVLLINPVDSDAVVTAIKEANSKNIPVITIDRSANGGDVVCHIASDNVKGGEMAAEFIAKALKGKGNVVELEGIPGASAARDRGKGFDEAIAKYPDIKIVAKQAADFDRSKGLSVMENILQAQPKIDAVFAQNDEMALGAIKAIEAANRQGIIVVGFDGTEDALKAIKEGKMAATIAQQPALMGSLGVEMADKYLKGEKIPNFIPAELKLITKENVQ
T1 sequence (P62942 with tags, fused parts or gaps C23A/V25A partner): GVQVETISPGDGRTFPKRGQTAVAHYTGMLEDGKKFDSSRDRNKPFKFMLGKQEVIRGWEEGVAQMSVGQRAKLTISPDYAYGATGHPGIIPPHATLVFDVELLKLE

In the case of O=C[C@H](O)[C@H](O)[C@H](O)CO [ribose], the Kd is reported as 12.8 nM.
